For 8 compounds, AC50 and EC50 results are on record in ChEMBL document CHEMBL1201862, “PubChem BioAssay data set” (2004).

Some targets named below: Cytochrome P450 2D6 (Homo sapiens, UniProt P10635); Cytochrome P450 2C9 (Homo sapiens, UniProt P11712); Cytochrome P450 3A4 (Homo sapiens, UniProt P08684).
The next experiment deals with Cytochrome P450 2C19 (Homo sapiens, UniProt P33261). Nature of the experiment: Cytochrome panel assay with activity outcomes. Panel member name: p450-cyp2c19 Compounds with AC50 equal or less than 10 uM are considered active. It counts as functional. To be noted: read-out: AC50.
Chain of Cytochrome P450 2C19 (P33261 whole entry): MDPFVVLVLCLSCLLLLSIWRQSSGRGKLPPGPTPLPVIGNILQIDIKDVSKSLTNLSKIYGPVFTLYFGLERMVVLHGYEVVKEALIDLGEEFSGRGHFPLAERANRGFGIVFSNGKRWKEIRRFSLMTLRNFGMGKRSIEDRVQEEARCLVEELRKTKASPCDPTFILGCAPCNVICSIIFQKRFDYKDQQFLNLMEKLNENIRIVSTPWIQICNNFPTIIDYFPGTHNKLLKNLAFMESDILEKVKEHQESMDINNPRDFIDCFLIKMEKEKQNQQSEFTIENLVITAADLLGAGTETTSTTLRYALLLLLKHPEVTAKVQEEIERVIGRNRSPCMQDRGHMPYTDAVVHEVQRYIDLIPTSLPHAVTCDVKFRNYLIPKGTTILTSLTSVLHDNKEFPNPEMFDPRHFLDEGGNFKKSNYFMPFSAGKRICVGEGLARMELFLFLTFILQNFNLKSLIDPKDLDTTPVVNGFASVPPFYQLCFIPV
For another experiment, the target named is T1, Cytochrome P450 1A2 (Homo sapiens, UniProt P05177).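 Further: PubChem cytochrome P450 panel assay, CYP1A2 panel member.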
T1 sequence (P05177 whole entry): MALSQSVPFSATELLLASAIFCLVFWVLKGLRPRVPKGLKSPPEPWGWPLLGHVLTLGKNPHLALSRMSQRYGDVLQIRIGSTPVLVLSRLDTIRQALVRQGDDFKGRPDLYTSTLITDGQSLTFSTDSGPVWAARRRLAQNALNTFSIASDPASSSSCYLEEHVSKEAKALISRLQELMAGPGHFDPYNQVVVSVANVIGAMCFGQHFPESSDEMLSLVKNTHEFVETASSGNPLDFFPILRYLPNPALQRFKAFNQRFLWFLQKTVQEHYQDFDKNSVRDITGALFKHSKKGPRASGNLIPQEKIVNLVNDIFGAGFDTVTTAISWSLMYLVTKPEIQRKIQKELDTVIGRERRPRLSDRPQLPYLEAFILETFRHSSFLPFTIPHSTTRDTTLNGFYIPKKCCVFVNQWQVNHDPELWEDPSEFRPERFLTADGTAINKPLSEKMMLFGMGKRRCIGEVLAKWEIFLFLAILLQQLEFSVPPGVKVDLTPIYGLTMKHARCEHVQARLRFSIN

Another experiment concerns Streptococcus. Description: Group A Streptococcus viability loss, dose response, counter-screen for streptokinase expression inhibitor project, luminescence, BacTiterGlo (AID 1915).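 Further: potency for reduction of bacterial viability or growth.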 It counts as functional, organism-based.
The test system of experiment [1] is Streptococcus sp. 'group A'. Description: growth inhibition of control SK(-) GAS strain, dose response, counter-screen for streptokinase expression inhibitor project, luminescence, kanamycin, BacTiterGlo, confirmation (AID 1900). The format is functional, organism-based.

The source made the active and inactive calls.

Chain of Cytochrome P450 3A4 (P08684 whole entry): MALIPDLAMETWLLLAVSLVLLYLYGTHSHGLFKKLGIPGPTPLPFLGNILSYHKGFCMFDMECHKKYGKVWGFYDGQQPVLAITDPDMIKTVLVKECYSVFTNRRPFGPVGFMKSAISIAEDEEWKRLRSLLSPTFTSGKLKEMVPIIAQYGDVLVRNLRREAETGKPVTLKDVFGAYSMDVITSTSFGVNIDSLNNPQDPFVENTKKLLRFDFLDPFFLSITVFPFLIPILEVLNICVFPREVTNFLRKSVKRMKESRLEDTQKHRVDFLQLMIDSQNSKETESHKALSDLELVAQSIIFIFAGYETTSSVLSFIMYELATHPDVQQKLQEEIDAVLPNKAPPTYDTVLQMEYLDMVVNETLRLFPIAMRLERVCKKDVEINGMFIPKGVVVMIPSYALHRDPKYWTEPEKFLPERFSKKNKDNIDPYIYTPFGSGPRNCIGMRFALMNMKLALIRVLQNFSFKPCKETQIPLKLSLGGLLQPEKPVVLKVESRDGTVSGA
Chain of Cytochrome P450 2C9 (P11712 whole entry): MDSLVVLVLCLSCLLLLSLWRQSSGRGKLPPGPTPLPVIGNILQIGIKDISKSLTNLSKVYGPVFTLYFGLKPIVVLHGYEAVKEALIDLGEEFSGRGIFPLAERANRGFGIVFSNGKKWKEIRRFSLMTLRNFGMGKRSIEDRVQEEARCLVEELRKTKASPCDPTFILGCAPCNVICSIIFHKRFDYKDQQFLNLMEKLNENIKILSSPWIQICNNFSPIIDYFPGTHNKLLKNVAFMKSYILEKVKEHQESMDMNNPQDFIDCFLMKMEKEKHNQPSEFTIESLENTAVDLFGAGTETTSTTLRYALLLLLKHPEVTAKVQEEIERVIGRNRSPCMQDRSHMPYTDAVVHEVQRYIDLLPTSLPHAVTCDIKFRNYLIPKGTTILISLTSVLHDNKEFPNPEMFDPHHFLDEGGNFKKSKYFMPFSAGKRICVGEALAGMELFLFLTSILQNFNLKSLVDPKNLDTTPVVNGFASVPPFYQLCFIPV
Chain of Cytochrome P450 2D6 (P10635 whole entry): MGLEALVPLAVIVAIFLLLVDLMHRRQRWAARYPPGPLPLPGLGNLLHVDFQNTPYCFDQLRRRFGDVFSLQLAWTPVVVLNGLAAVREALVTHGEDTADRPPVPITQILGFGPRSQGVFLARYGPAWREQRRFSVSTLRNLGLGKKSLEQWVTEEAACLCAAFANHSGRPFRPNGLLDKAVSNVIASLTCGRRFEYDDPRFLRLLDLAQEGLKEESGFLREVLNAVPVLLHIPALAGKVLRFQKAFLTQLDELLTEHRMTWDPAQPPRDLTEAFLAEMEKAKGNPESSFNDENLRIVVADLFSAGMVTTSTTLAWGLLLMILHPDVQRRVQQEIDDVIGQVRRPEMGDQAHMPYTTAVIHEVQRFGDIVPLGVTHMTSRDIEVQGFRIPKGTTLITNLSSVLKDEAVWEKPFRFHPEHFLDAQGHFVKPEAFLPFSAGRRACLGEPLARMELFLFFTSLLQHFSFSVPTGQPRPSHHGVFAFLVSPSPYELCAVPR

In the case of `Cc1cccc(CNc2ccnc(-c3cccc(C#N)c3)n2)c1`, the AC50 is 25.1 µM (inconclusive) on Cytochrome P450 2D6 and 0.794 µM (inconclusive) on Cytochrome P450 2C9.

For the compound `N#C/C(=C\c1c[nH]c2ccccc12)C(=O)c1ccc(O)c(O)c1`, the AC50 on Cytochrome P450 2C19 was 31.6 µM (inconclusive); on Cytochrome P450 2D6, 25.1 µM (inconclusive); at Cytochrome P450 2C9, 31.6 µM (inconclusive).

As for `C[C@@H](C(=O)O)c1ccc(C(=O)c2ccccc2)s1`, the AC50 is 7.94 µM (inconclusive) on Cytochrome P450 2D6, 0.251 µM (inconclusive) at Cytochrome P450 1A2, 12.6 µM (inconclusive) on Cytochrome P450 3A4 and 15.8 µM (inconclusive) at Cytochrome P450 2C9.

Take `CCCCCCCCCOc1ccc2[nH]cc(CCN)c2c1`: the half-maximal activity concentration (AC50) is 25.1 µM (inconclusive) at Cytochrome P450 2D6, 39.8 µM (inconclusive) on Cytochrome P450 3A4 and 25.1 µM (inconclusive) at Cytochrome P450 2C9.

Take `Cc1cc(C)c2c(-n3cccc3)nn(CC#N)c2n1`: the concentration at half-maximal activity (AC50) is 10 µM (inconclusive) on Cytochrome P450 2D6, 15.8 µM (inconclusive) at Cytochrome P450 3A4 and 14.1 µM (inconclusive) at Cytochrome P450 2C9.

With `CCCCCCCCCCCCC(=O)N1CCCC[C@H]1CNC(=O)[C@@H](N)CCCCN`, the concentration at half-maximal activity (AC50) on Cytochrome P450 2D6 was 25.1 µM (inconclusive); on Cytochrome P450 1A2 it was 31.6 µM (inconclusive); on Cytochrome P450 2C9, 10 µM (inconclusive).

Turning to `O=C(c1cc(C(F)(F)F)cc(C(F)(F)F)c1)N1CCC2(CCCN(c3ncccn3)C2)CC1`, the concentration at half-maximal activity (AC50) at Cytochrome P450 2C19 is 20 µM (inconclusive); at Cytochrome P450 2D6, 10 µM (inconclusive); at Cytochrome P450 1A2 it was 31.6 µM (inconclusive); on Cytochrome P450 3A4, 15.8 µM (inconclusive).

`Cc1nnc(SC(C(=O)Nc2cc(Cl)cc(Cl)c2)c2ccccc2)nc1O` (centres undefined): the EC50 in the experiment on Streptococcus was > 150 µM (not active); in experiment [1], 10.6 µM (active).
